Assay results published in patent EP0018189B1 (priority 1979, dated 1980).

Key:
[1] = test system: poliomyelitis vaccines (Types 1, 2 and 3): Type 1; set-up: species or system guinea pigs; settings: guinea pig, in vivo
[2] = test system: poliomyelitis vaccines (Types 1, 2 and 3): Type 2; assay type: in vivo; settings: guinea pigs
[3] = test system: poliomyelitis vaccines (Types 1, 2 and 3): Type 3; assay type: in vivo; settings: guinea pigs
[4] = undiluted, 1/10 and 1/100 dilutions, determined by comparison of ED50

With `CCCCCCCCCCCCCCCCCCOC(=O)[C@@H](N)Cc1ccc(O)cc1` [octadecyl tyrosine] the “Potency Relative to Unadsorbed Vaccine, Type 1” value [1] was 13.8, the “factor more potent than the vaccine containing aluminum phosphate, type 1” value [1] was 5.2 and the “factor more potent than the vaccine containing aluminum phosphate, type 2” value [2] was 1.9. For the same compound, the “Potency Relative to Unadsorbed Vaccine, Type 2” value [2, 4] was 3.2, the “factor more potent than the vaccine containing aluminum phosphate, type 3” value [3] was 1.4 and the “Potency Relative to Unadsorbed Vaccine, Type 3” value [3, 4] was 8.5.
